Measurements taken from patent publication US20250098679A1, “HERBICIDAL PYRIDONE DERIVATIVES” (SYNGENTA CROP PROTECTION AG, priority 2021, published 2025).

Tests used:
Format in all cases: in vivo
Conditions in all cases: evaluated after 13 days
Setaria faberi (SETFA) [1] = assay: Pre-emergence Test, Setaria faberi (SETFA)
[2] = system: Echinochloa crus-galli (ECHCG); assay: Pre-emergence Test, Echinochloa crus-galli (ECHCG)
Zea mays (ZEAMX) [3] = assay: Pre-emergence Test, Zea mays (ZEAMX)
[4] = system: Ipomoea hederacea (IPOHE); assay: Pre-emergence Test, Ipomoea hederacea (IPOHE)
[5] = system: Amaranthus palmeri (AMAPA); assay: Pre-emergence Test, Amaranthus palmeri (AMAPA)
[6] = system: Amaranthus retoflexus (AMARE); assay: Pre-emergence Test, Amaranthus retoflexus (AMARE)
Setaria faberi (SETFA) [7] = assay: Post-emergence Test, Setaria faberi (SETFA); parameters: key to percentage damage caused to the plant, SETFA (five-point scale): 5=81-100%, 4=61-80%, 3=41-60%, 2=21-40%, 1=0-20% damage
In short: (§1)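 Percent plant damage was rated 13 days post-application on a 1–5 scale (1=0-20%, 5=81-100%). Application used an aqueous acetone (50:50)/0.5% Tween 20 spray, normally 1000 g/ha, with controlled glasshouse conditions (24/16 °C, 14 h light, 65% humidity).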

[8] = system: Echinochloa crus-galli (ECHCG); assay: Post-emergence Test, Echinochloa crus-galli (ECHCG); parameters: key to percentage damage caused to the plant, ECHCG (five-point scale): 5=81-100%, 4=61-80%, 3=41-60%, 2=21-40%, 1=0-20% damage
In short: as §1

Zea mays (ZEAMX) [9] = assay: Post-emergence Test, Zea mays (ZEAMX); parameters: key to percentage damage caused to the plant, ZEAMX (five-point scale): 5=81-100%, 4=61-80%, 3=41-60%, 2=21-40%, 1=0-20% damage
In short: as §1

[10] = system: Ipomoea hederacea (IPOHE); assay: Post-emergence Test, Ipomoea hederacea (IPOHE); parameters: key to percentage damage caused to the plant, IPOHE (five-point scale): 5=81-100%, 4=61-80%, 3=41-60%, 2=21-40%, 1=0-20% damage
In short: as §1

[11] = system: Amaranthus palmeri (AMAPA); assay: Post-emergence Test, Amaranthus palmeri (AMAPA); parameters: key: 5=81-100%, 4=61-80%, 3=41-60%, 2=21-40%, 1=0-20% damage
In short: as §1

[12] = system: Amaranthus retoflexus (AMARE); assay: Post-emergence Test, Amaranthus retoflexus (AMARE); parameters: key to percentage damage caused to the plant, AMARE (five-point scale): 5=81-100%, 4=61-80%, 3=41-60%, 2=21-40%, 1=0-20% damage
In short: as §1

SMILES	Pre-emergence Test SETFA, percentage damage caused to the plant (five-point scale) (Setaria faberi (SETFA) [1]; 1000 g/ha)	Pre-emergence Test ECHCG, percentage damage caused to the plant (five-point scale) ([2]; 1000 g/ha)	Pre-emergence Test ZEAMX, percentage damage caused to the plant (five-point scale) (Zea mays (ZEAMX) [3]; 1000 g/ha)	Pre-emergence Test IPOHE, percentage damage caused to the plant (five-point scale) ([4]; 1000 g/ha)	Pre-emergence Test AMAPA, percentage damage caused to the plant (five-point scale) ([5]; 1000 g/ha)	Pre-emergence Test AMARE, percentage damage caused to the plant (five-point scale) ([6]; 1000 g/ha)	percentage damage caused to the plant, SETFA (five-point scale) (Setaria faberi (SETFA) [7]; 250 g/Ha)	percentage damage caused to the plant, SETFA (five-point scale) (Setaria faberi (SETFA) [7]; 1000 g/ha)	percentage damage caused to the plant, ECHCG (five-point scale) ([8]; 250 g/Ha)	percentage damage caused to the plant, ECHCG (five-point scale) ([8]; 1000 g/ha)	percentage damage caused to the plant, ZEAMX (five-point scale) (Zea mays (ZEAMX) [9]; 250 g/Ha)	percentage damage caused to the plant, ZEAMX (five-point scale) (Zea mays (ZEAMX) [9]; 1000 g/ha)	percentage damage caused to the plant, IPOHE (five-point scale) ([10]; 250 g/Ha)	percentage damage caused to the plant, IPOHE (five-point scale) ([10]; 1000 g/ha)	percentage damage caused to the plant, AMAPA (five-point scale) ([11]; 250 g/Ha)	percentage damage caused to the plant, AMAPA (five-point scale) ([11]; 1000 g/ha)	percentage damage caused to the plant, AMARE (five-point scale) ([12]; 250 g/Ha)	percentage damage caused to the plant, AMARE (five-point scale) ([12]; 1000 g/ha)	also measured
CCn1c(Cn2cc(C)c(C(F)(F)F)n2)cc(=O)c(C(=O)O)c1-c1ccc(Cl)c(Cl)c1 [Compound 96, 2-(3,4-dichlorophenyl)-1-ethyl-6-[[4-methyl-3-(trifluoromethyl)pyrazol-1-yl]methyl]-4-oxo-pyridine-3-carboxylic acid]	3 (3=41-60%)	3 (3=41-60%)	0	1 (1=0-20%)	1 (1=0-20%)	1 (1=0-20%)	0	3 (3=41-60%)	2 (2=21-40%)	2 (2=21-40%)	0	4 (4=61-80%)	0	0	0	0	0	1 (1=0-20%)	
CCn1c(Cn2ccc(C(F)(F)F)n2)c(C)c(=O)c(C(=O)O)c1-c1ccc(Cl)c(Cl)c1 [Compound 20, 2-(3,4-dichlorophenyl)-1-ethyl-5-methyl-4-oxo-6-[[3-(trifluoromethyl)pyrazol-1-yl]methyl]pyridine-3-carboxylic acid]	2 (2=21-40%)	4 (4=61-80%)	1 (1=0-20%)	0	0	0		4 (4=61-80%)		3 (3=41-60%)		1 (1=0-20%)		0		0		1 (1=0-20%)	
CCn1c(Cn2nc(C)cc2O)cc(=O)c(C(=O)O)c1-c1ccc(Cl)c(Cl)c1 [Compound 146, 2-(3,4-dichlorophenyl)-1-ethyl-6-[(5-hydroxy-3-methyl-pyrazol-1-yl)methy]-4-oxo-pyridine-3-carboxylic acid]	1 (1=0-20%)	1 (1=0-20%)	0	0	0	0		1 (1=0-20%)		0		0		0		0		0	
CCn1c(Cn2ccc(C(F)(F)F)n2)cc(=O)c(C(=O)O)c1-c1ccc(F)c(F)c1 [Compound 31, 2-(3,4-difluorophenyl)-1-ethyl-4-oxo-6-[[3-(trifluoromethyl)pyrazol-1-yl]methyl]pyridine-3-carboxylic acid]	5 (5=81-100%)	5 (5=81-100%)	0	1 (1=0-20%)	0	0	4 (4=61-80%)	4 (4=61-80%)	2 (2=21-40%)	4 (4=61-80%)	1 (1=0-20%)	3 (3=41-60%)	4 (4=61-80%)	2 (2=21-40%)	0	2 (2=21-40%)	1 (1=0-20%)	2 (2=21-40%)	
CCn1c(Cn2ccc(C(F)(F)F)n2)cc(=O)c(C(=O)O)c1-c1cccc(Cl)c1 [Compound 25, 2-(3-chlorophenyl)-1-ethyl-4-oxo-6-[[3-(trifluoromethyl)pyrazol-1-yl]methyl]pyridine-3-carboxylic acid]	5 (5=81-100%)	5 (5=81-100%)	1 (1=0-20%)	1 (1=0-20%)	2 (2=21-40%)	2 (2=21-40%)	4 (4=61-80%)	4 (4=61-80%)	3 (3=41-60%)	4 (4=61-80%)	0	3 (3=41-60%)	4 (4=61-80%)	4 (4=61-80%)	2 (2=21-40%)	2 (2=21-40%)	2 (2=21-40%)	2 (2=21-40%)	
CCn1c(Cn2ccc(Cl)n2)cc(=O)c(C(=O)O)c1-c1ccc(C#N)c(Cl)c1 [Compound 119, 2-(3-chloro-4-cyano-phenyl)-6-[(3-chloropyrazol-1-yl)methyl]-1-ethyl-4-oxo-pyridine-3-carboxylic acid]	4 (4=61-80%)	3 (3=41-60%)	0	0	1 (1=0-20%)	0	1 (1=0-20%)	4 (4=61-80%)	1 (1=0-20%)	4 (4=61-80%)	0	0	1 (1=0-20%)	2 (2=21-40%)	0		1 (1=0-20%)	0	Pre-emergence Test SETFA, percentage damage caused to the plant (five-point scale) (Setaria faberi (SETFA) [1]; 250 g/Ha (*)): 3 (3=41-60%); Pre-emergence Test ECHCG, percentage damage caused to the plant (five-point scale) ([2]; 250 g/Ha (*)): 1 (1=0-20%); Pre-emergence Test ZEAMX, percentage damage caused to the plant (five-point scale) (Zea mays (ZEAMX) [3]; 250 g/Ha (*)): 0; Pre-emergence Test IPOHE, percentage damage caused to the plant (five-point scale) ([4]; 250 g/Ha (*)): 0; Pre-emergence Test AMAPA, percentage damage caused to the plant (five-point scale) ([5]; 250 g/Ha (*)): 1 (1=0-20%); Pre-emergence Test AMARE, percentage damage caused to the plant (five-point scale) ([6]; 250 g/Ha (*)): 0
